For the assay, the system named is MV-4-11 cells. As to the kind of experiment: Gene expression microarray analysis (Affymetrix PrimeView) and GSEA. It counts as cell-based, human. Also on record: RFU PODN (11730768_x_at) / Fold change /veh PODN (11730768_x_at) / RFU LINC00158 (11744669_a_at) / Fold change /veh LINC00158 (11744669_a_at) / RFU DUSP10 (11751237_a_at) / Fold change /veh DUSP10 (11751237_a_at) / RFU ID3 (11757404_x_at) / Fold change /veh ID3 (11757404_x_at) / RFU PLEKHG5 (11737974_s_at) / Fold change /veh PLEKHG5 (11737974_s_at) / RFU LRRC4B (11730491_at) / Fold change /veh LRRC4B (11730491_at) / RFU GIMAP4 (11747438_a_at) / Fold change /veh GIMAP4 (11747438_a_at) / RFU KRT8 (11758183_x_at) / Fold change /veh KRT8 (11758183_x_at) / RFU CNN1 (11734310_a_at) / Fold change /veh CNN1 (11734310_a_at) / RFU VPS37D (11726825_at) / Fold change /veh VPS37D (11726825_at) / RFU C10orf10 (11716522_x_at) / Fold change /veh C10orf10 (11716522_x_at) / RFU KIR2DL2 /// KIR2DL4 /// KIR2DL5A /// KIR2DL5B /// KIR2DS1 /// KIR2DS2 /// KIR2DS3 /// KIR2DS4 /// KIR3DL3 /// KIR3DL3 /// KIR3DS1 (11738374_at) / Fold change /veh KIR2DL2 /// KIR2DL4 /// KIR2DL5A /// KIR2DL5B /// KIR2DS1 /// KIR2DS2 /// KIR2DS3 /// KIR2DS4 /// KIR3DL3 /// KIR3DL3 /// KIR3DS1 (11738374_at) / RFU C1QL1 (11718748_at) / Fold change /veh C1QL1 (11718748_at) / RFU TMPRSS4 (11747572_a_at) / Fold change /veh TMPRSS4 (11747572_a_at) / RFU HAMP (11756126_x_at) / Fold change /veh HAMP (11756126_x_at) / RFU RNFT2 (11725882_a_at) / Fold change /veh RNFT2 (11725882_a_at) / RFU NR4A2 (11747474_a_at) / Fold change /veh NR4A2 (11747474_a_at) / RFU ABCC12 (11746883_a_at) / Fold change /veh ABCC12 (11746883_a_at) / RFU TMEM136 (11760407_x_at) / Fold change /veh TMEM136 (11760407_x_at) / RFU CLDN22 /// WWC2 (11732394_at) / Fold change /veh CLDN22 /// WWC2 (11732394_at) / RFU HLA-DPB1 (11760878_x_at) / Fold change /veh HLA-DPB1 (11760878_x_at) / RFU SPINT1 (11716480_a_at) / Fold change /veh SPINT1 (11716480_a_at) / RFU GAP43 (11754022_s_at) / Fold change /veh GAP43 (11754022_s_at) / RFU A4GNT (11735810_at) / Fold change /veh A4GNT (11735810_at) / RFU PRB3 (11715151_x_at) / Fold change /veh PRB3 (11715151_x_at) / RFU TUBB4B (11761932_at) / Fold change /veh TUBB4B (11761932_at) / RFU CAPN14 (11732068_a_at) / Fold change /veh CAPN14 (11732068_a_at) / RFU TMCC2 (11721928_a_at) / Fold change /veh TMCC2 (11721928_a_at) / RFU IRGQ (11745062_a_at) / Fold change /veh IRGQ (11745062_a_at) / RFU FAM174B (11720279_a_at) / Fold change /veh FAM174B (11720279_a_at) / RFU TMPRSS4 (11748680_a_at) / Fold change /veh TMPRSS4 (11748680_a_at) / RFU FAM212B (11763350_a_at) / Fold change /veh FAM212B (11763350_a_at) / RFU PLEKHG5 (11743358_a_at) / Fold change /veh PLEKHG5 (11743358_a_at) / RFU ZSCAN30 (11745921_a_at) / Fold change /veh ZSCAN30 (11745921_a_at) / RFU CMKLR1 (11741424_a_at) / Fold change /veh CMKLR1 (11741424_a_at) / RFU LOC101060620 /// MAPK8IP1 (11723275_at) / Fold change /veh LOC101060620 /// MAPK8IP1 (11723275_at) / RFU SPTSSB (11747773_x_at) / Fold change /veh SPTSSB (11747773_x_at) / RFU PRSS12 (11739890_at) / Fold change /veh PRSS12 (11739890_at) / RFU BIN1 (11741810_x_at) / Fold change /veh BIN1 (11741810_x_at) / RFU WNT11 (11732464_a_at) / Fold change /veh WNT11 (11732464_a_at) / RFU C10orf10 (11716521_a_at) / Fold change /veh C10orf10 (11716521_a_at) / RFU C5orf56 (11738089_at) / Fold change /veh C5orf56 (11738089_at) / RFU CYB561 (11721691_x_at) / Fold change /veh CYB561 (11721691_x_at) / RFU ANKRD19P (11752326_a_at) / Fold change /veh ANKRD19P (11752326_a_at) / RFU OR2T12 /// OR2T33 /// OR2T8 (11738714_s_at) / Fold change /veh OR2T12 /// OR2T33 /// OR2T8 (11738714_s_at) / RFU VCAN (11748164_a_at) / Fold change /veh VCAN (11748164_a_at) / RFU JSRP1 (11732532_at) / Fold change /veh JSRP1 (11732532_at) / RFU KRTAP10-11 (11738290_x_at) / Fold change /veh KRTAP10-11 (11738290_x_at) / RFU MYO3A (11730013_a_at) / Fold change /veh MYO3A (11730013_a_at) / RFU EBF3 (11725865_a_at) / Fold change /veh EBF3 (11725865_a_at) / RFU CAMK2N1 (11719241_x_at) / Fold change /veh CAMK2N1 (11719241_x_at) / RFU C5orf56 (11738088_a_at) / Fold change /veh C5orf56 (11738088_a_at) / RFU OLFML3 (11715873_a_at) / Fold change /veh OLFML3 (11715873_a_at) / RFU LOC100653217 /// NTM (11731650_a_at) / Fold change /veh LOC100653217 /// NTM (11731650_a_at) / RFU MAPK11 (11762145_a_at) / Fold change /veh MAPK11 (11762145_a_at) / RFU FIZ1 (11724087_x_at) / Fold change /veh FIZ1 (11724087_x_at) / RFU OASL (11726364_x_at) / Fold change /veh OASL (11726364_x_at) / RFU SOX15 (11748057_x_at) / Fold change /veh SOX15 (11748057_x_at) / RFU CD79A (11719716_a_at) / Fold change /veh CD79A (11719716_a_at) / RFU HIST1H1D (11736915_at) / Fold change /veh HIST1H1D (11736915_at) / RFU CASKIN2 (11723855_a_at) / Fold change /veh CASKIN2 (11723855_a_at) / RFU LOC730098 (11760151_x_at) / Fold change /veh LOC730098 (11760151_x_at) / RFU OR4N2 (11742367_at) / Fold change /veh OR4N2 (11742367_at) / RFU PRRT2 (11749266_a_at) / Fold change /veh PRRT2 (11749266_a_at) / RFU SNX32 (11753110_a_at) / Fold change /veh SNX32 (11753110_a_at) / RFU CDHR5 (11726645_a_at) / Fold change /veh CDHR5 (11726645_a_at) / RFU RCAN1 (11760418_a_at) / Fold change /veh RCAN1 (11760418_a_at) / RFU FAM167A (11723789_a_at) / Fold change /veh FAM167A (11723789_a_at) / RFU FAM26E (11764081_at) / Fold change /veh FAM26E (11764081_at) / RFU ISYNA1 (11749810_s_at) / Fold change /veh ISYNA1 (11749810_s_at) / RFU ACY1 (11761880_at) / Fold change /veh ACY1 (11761880_at) / RFU 11764098_at / Fold change /veh 11764098_at / RFU SAMD14 (11745864_x_at) / Fold change /veh SAMD14 (11745864_x_at) / RFU NPB (11741838_a_at) / Fold change /veh NPB (11741838_a_at) / RFU TMPRSS6 (11731388_a_at) / Fold change /veh TMPRSS6 (11731388_a_at) / RFU KRTAP10-2 (11738614_at) / Fold change /veh KRTAP10-2 (11738614_at) / RFU ARHGAP8 /// PRR5-ARHGAP8 (11727945_x_at) / Fold change /veh ARHGAP8 /// PRR5-ARHGAP8 (11727945_x_at) / RFU KRTAP5-7 /// NADSYN1 (11734609_at) / Fold change /veh KRTAP5-7 /// NADSYN1 (11734609_at) / RFU RASL12 (11751679_a_at) / Fold change /veh RASL12 (11751679_a_at) / RFU CDKN2B (11736163_a_at) / Fold change /veh CDKN2B (11736163_a_at) / RFU PRF1 (11729649_at) / Fold change /veh PRF1 (11729649_at) / RFU, ZNF638 /// ZNF638-IT1 / Fold change vs veh, ZNF638 /// ZNF638-IT1 / RFU, PANK3 / Fold change vs veh, PANK3 / RFU, SH3YL1 / Fold change vs veh, SH3YL1 / RFU, ZEB2 / Fold change vs veh, ZEB2 / RFU, NRIP1 / Fold change vs veh, NRIP1 / RFU, PTTG1IP / Fold change vs veh, PTTG1IP / RFU, CAPN2 / Fold change vs veh, CAPN2 / RFU, MED14 / Fold change vs veh, MED14 / RFU, SNORA58 / Fold change vs veh, SNORA58 / RFU, C1orf63 / Fold change vs veh, C1orf63 / RFU, LRRFIP1 / Fold change vs veh, LRRFIP1 / RFU, NDUFAF7 / Fold change vs veh, NDUFAF7 / RFU, SLC12A2 / Fold change vs veh, SLC12A2 / RFU, IBTK / Fold change vs veh, IBTK / RFU, ESF1 / Fold change vs veh, ESF1 / Fold change vs veh, TMEM50B / RFU, TAOK1 / Fold change vs veh, TAOK1 / RFU, ACBD3 / Fold change vs veh, ACBD3 / RFU, TMA16 / Fold change vs veh, TMA16 / RFU, RWDD3 / Fold change vs veh, RWDD3 / RFU, BCAT1 / Fold change vs veh, BCAT1 / RFU, EDEM3 / Fold change vs veh, EDEM3 / RFU, TMEM33 / Fold change vs veh, TMEM33 / RFU, WDR75 / Fold change vs veh, WDR75 / RFU, AHCTF1 / Fold change vs veh, AHCTF1 / RFU, TFRC / Fold change vs veh, TFRC / RFU, ZDHHC17 / Fold change vs veh, ZDHHC17 / RFU, NOM1 / Fold change vs veh, NOM1 / RFU, ARL8B / Fold change vs veh, ARL8B / RFU, ZBTB11 / Fold change vs veh, ZBTB11 / RFU, TAMM41 / Fold change vs veh, TAMM41 / RFU, KIAA1704 /// LOC100996395 / Fold change vs veh, KIAA1704 /// LOC100996395 / RFU, ING1 / Fold change vs veh, ING1 / RFU, TRMT61B / Fold change vs veh, TRMT61B / RFU, FUBP3 / Fold change vs veh, FUBP3 / RFU, TP53 / Fold change vs veh, TP53 / RFU, TNKS2 / Fold change vs veh, TNKS2 / RFU, ZFP14 / Fold change vs veh, ZFP14 / RFU, ACTR2 / Fold change vs veh, ACTR2 / RFU, PPP3R1 / Fold change vs veh, PPP3R1 / RFU, PIK3R1 / Fold change vs veh, PIK3R1 / RFU, HNRNPA1 / Fold change vs veh, HNRNPA1 / RFU, RNF170 / Fold change vs veh, RNF170 / RFU, ZNF28 / Fold change vs veh, ZNF28 / RFU, RNGTT / Fold change vs veh, RNGTT / RFU, OGT / Fold change vs veh, OGT / RFU, BRD1 / Fold change vs veh, BRD1 / RFU, MARS / Fold change vs veh, MARS / RFU, ZNF655 / Fold change vs veh, ZNF655 / RFU, FAHD1 / Fold change vs veh, FAHD1 / RFU, BDP1 / Fold change vs veh, BDP1 / RFU, LRRCC1 / Fold change vs veh, LRRCC1 / RFU, ARID1A / Fold change vs veh, ARID1A / RFU, ZNF146 / Fold change vs veh, ZNF146 / RFU, ZNF330 / Fold change vs veh, ZNF330 / RFU, GPN3 / Fold change vs veh, GPN3 / RFU, C9orf123 / Fold change vs veh, C9orf123 / RFU, N4BP2L2 / Fold change vs veh, N4BP2L2 / RFU, ARFIP1 / Fold change vs veh, ARFIP1 / RFU, FAM179B / Fold change vs veh, FAM179B / RFU, BCL10 / Fold change vs veh, BCL10 / RFU, UHRF1BP1L / Fold change vs veh, UHRF1BP1L / RFU, BET1 / Fold change vs veh, BET1 / RFU, CNOT2 / Fold change vs veh, CNOT2 / RFU, ZNF268 / Fold change vs veh, ZNF268 / Fold change vs veh, ZNF507 / RFU, DGCR2 / Fold change vs veh, DGCR2 / RFU, WDSUB1 / Fold change vs veh, WDSUB1 / Fold change vs veh, HSP90B1 /// MIR3652 / RFU, ADSS / Fold change vs veh, ADSS / RFU, GK / Fold change vs veh, GK / RFU, ZNF148 / Fold change vs veh, ZNF148 / RFU, TAF9 / Fold change vs veh, TAF9 / RFU, SLC1A5 / Fold change vs veh, SLC1A5 / RFU, SLMO2 / Fold change vs veh, SLMO2 / RFU, ABCC4 / Fold change vs veh, ABCC4 / RFU, LOC101060439 /// RAP1B / Fold change vs veh, LOC101060439 /// RAP1B / RFU, RFX7 / Fold change vs veh, RFX7 / RFU, GTPBP10 / Fold change vs veh, GTPBP10 / RFU, CNEP1R1 / Fold change vs veh, CNEP1R1 / RFU, BIVM-ERCC5 /// ERCC5 / Fold change vs veh, BIVM-ERCC5 /// ERCC5 / RFU, ILF3 / Fold change vs veh, ILF3 / RFU 11762660_at / Fold change /veh 11762660_at / RFU VCAN (11757783_s_at) / Fold change /veh VCAN (11757783_s_at) / RFU DDX43 (11728927_at) / Fold change /veh DDX43 (11728927_at) / RFU KRT8 (11758188_x_at) / Fold change /veh KRT8 (11758188_x_at) / RFU NKD1 (11759106_at) / Fold change /veh NKD1 (11759106_at) / RFU SRD5A1 (11742802_a_at) / Fold change /veh SRD5A1 (11742802_a_at) / RFU TPSAB1 /// TPSB2 (11721975_s_at) / Fold change /veh TPSAB1 /// TPSB2 (11721975_s_at) / RFU GSTM3 (11746129_a_at) / Fold change /veh GSTM3 (11746129_a_at) / RFU IL23R (11737362_x_at) / Fold change /veh IL23R (11737362_x_at) / RFU TMEM51 (11727254_a_at) / Fold change /veh TMEM51 (11727254_a_at) / RFU PIWIL2 (11732686_x_at) / Fold change /veh PIWIL2 (11732686_x_at) / RFU ORM1 (11744905_x_at) / Fold change /veh ORM1 (11744905_x_at) / RFU CCDC152 (11743942_at) / Fold change /veh CCDC152 (11743942_at) / RFU ECM1 (11717891_a_at) / Fold change /veh ECM1 (11717891_a_at) / RFU IL23R (11748794_a_at) / Fold change /veh IL23R (11748794_a_at) / RFU TNFAIP8L3 (11732012_x_at) / Fold change /veh TNFAIP8L3 (11732012_x_at) / RFU MBOAT4 (11741988_at) / Fold change /veh MBOAT4 (11741988_at) / RFU 11764193_at / Fold change /veh 11764193_at / RFU TMEM53 (11763286_at) / Fold change /veh TMEM53 (11763286_at) / RFU MAGEB2 (11727129_at) / Fold change /veh MAGEB2 (11727129_at) / RFU TMEM200A (11744735_a_at) / Fold change /veh TMEM200A (11744735_a_at) / RFU CCDC152 (11751479_a_at) / Fold change /veh CCDC152 (11751479_a_at) / RFU FAM211A (11726209_a_at) / Fold change /veh FAM211A (11726209_a_at) / RFU RGS16 (11746705_a_at) / Fold change /veh RGS16 (11746705_a_at) / RFU VCAN (11755009_s_at) / Fold change /veh VCAN (11755009_s_at) / RFU RHOB (11743442_s_at) / Fold change /veh RHOB (11743442_s_at) / RFU RGS16 (11720943_a_at) / Fold change /veh RGS16 (11720943_a_at) / RFU RGS16 (11720944_at) / Fold change /veh RGS16 (11720944_at) / RFU, VPS4B / Fold change vs veh, VPS4B / RFU, CREB1 / Fold change vs veh, CREB1 / RFU, DNAJC13 / Fold change vs veh, DNAJC13 / RFU, GNAQ / Fold change vs veh, GNAQ / RFU, CDK5R1 / Fold change vs veh, CDK5R1 / RFU, ZRANB3 / Fold change vs veh, ZRANB3 / RFU, CUL4A / Fold change vs veh, CUL4A / RFU, CCNY / Fold change vs veh, CCNY / RFU, UFL1 / Fold change vs veh, UFL1 / RFU, COG3 / Fold change vs veh, COG3 / RFU, DIAPH2 / Fold change vs veh, DIAPH2 / RFU, SKA2 / Fold change vs veh, SKA2 / RFU, AFF3 / Fold change vs veh, AFF3 / RFU, LMF1 / Fold change vs veh, LMF1 / RFU, IPO11 / Fold change vs veh, IPO11 / RFU, DFFB / Fold change vs veh, DFFB / RFU, FOXP1 / Fold change vs veh, FOXP1 / RFU, CARD8 / Fold change vs veh, CARD8 / RFU, STRN3 / Fold change vs veh, STRN3 / RFU, ADK / Fold change vs veh, ADK / RFU, RASSF2 / Fold change vs veh, RASSF2 / RFU, WIPF1 / Fold change vs veh, WIPF1 / RFU, LARP1B / Fold change vs veh, LARP1B / RFU, RASA1 / Fold change vs veh, RASA1 / RFU, RB1 / Fold change vs veh, RB1 / RFU, PPFIA1 / Fold change vs veh, PPFIA1 / RFU, MAT2A / Fold change vs veh, MAT2A / RFU, CCT5 / Fold change vs veh, CCT5 / RFU, WDR92 / Fold change vs veh, WDR92 / RFU, CUX1 / Fold change vs veh, CUX1 / RFU, TTC7A / Fold change vs veh, TTC7A / RFU, TMEM135 / Fold change vs veh, TMEM135 / RFU, DEPTOR / Fold change vs veh, DEPTOR / RFU, CPM / Fold change vs veh, CPM / RFU, DNAJB6 / Fold change vs veh, DNAJB6 / RFU, CACNA2D3 / Fold change vs veh, CACNA2D3 / RFU, DTX4 / Fold change vs veh, DTX4 / RFU, TFCP2 / Fold change vs veh, TFCP2 / RFU, GMCL1 /// GMCL1P1 / Fold change vs veh, GMCL1 /// GMCL1P1 / RFU, AEBP2 / Fold change vs veh, AEBP2 / RFU, SNHG1 /// SNORD22 /// SNORD25 /// SNORD26 /// SNORD27 /// SNORD28 /// SNORD29 /// SNORD31 / Fold change vs veh, SNHG1 /// SNORD22 /// SNORD25 /// SNORD26 /// SNORD27 /// SNORD28 /// SNORD29 /// SNORD31 / Fold change (Aza/veh), C12orf56 (ProbeSet 11735607_a_at) / Fold change (ACY-1035/veh), C12orf56 (ProbeSet 11735607_a_at) / Fold change (Aza/veh), FGFR1OP (ProbeSet 11751329_s_at) / Fold change (ACY-1035/veh), FGFR1OP (ProbeSet 11751329_s_at) / Fold change (Aza/veh), VPS36 (ProbeSet 11739960_a_at) / Fold change (ACY-1035/veh), VPS36 (ProbeSet 11739960_a_at) / RFU SYPL1 (11715823_x_at) / Fold change /veh SYPL1 (11715823_x_at) / RFU IGFBP7 (11715501_s_at) / Fold change /veh IGFBP7 (11715501_s_at) / RFU REEP3 (11722064_at) / Fold change /veh REEP3 (11722064_at) / RFU IGLL1 (11728026_x_at) / Fold change /veh IGLL1 (11728026_x_at): dose or concentration left out as unconfirmed. Conditions: MV-4-11 cells, 48 hours.

SMILES strings stand for the structures.

For `Nc1ccc(-c2cccs2)cc1NC(=O)c1ccc2c(c1)cc(C1CC1)n2CCN1CCOCC1` [ACY-1035], the “Fold change /veh FAM174B (11720279_a_at)” value amounted to 1.09.

The values are drawn from paper PMC5218480 (PLoS ONE, 2017).
